Laboratory results: PMC10675646 (Viruses, 2023)
Where a SMILES comes first, the peptide text is derived from it. The star is where a group is joined. 5FAM = O=C1OC2(c3ccc(O)cc3Oc3cc(O)ccc32)c2ccc(C(=O)*)cc21; Ahx = NCCCCCC(=O)O

Target: T1, 6xHis-SUMO-TRAF2 (residues 315–501) TRAF-C domain (Homo sapiens, UniProt Q12933)
T1 sequence (Q12933 315-501): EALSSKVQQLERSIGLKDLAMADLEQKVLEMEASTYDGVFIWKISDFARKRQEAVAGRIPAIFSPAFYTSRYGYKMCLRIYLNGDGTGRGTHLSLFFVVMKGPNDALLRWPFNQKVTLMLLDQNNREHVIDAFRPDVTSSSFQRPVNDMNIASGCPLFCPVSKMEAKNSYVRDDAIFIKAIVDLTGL
Experiment: Fluorescence polarization (FP) binding assay, TRAF2 TRAF-C domain
Settings: summary range stated for TRAF2 and TRAF3 TRAF-C together, read-out: Binding affinities between the PIQAS peptide and SUMO-TRAF-C proteins (range)

CC[C@H](C)[C@H](NC(=O)[C@@H]1CCCN1C(=O)CCCCCNC(=O)c1ccc2c(c1)C(=O)OC21c2ccc(O)cc2Oc2cc(O)ccc21)C(=O)N[C@@H](CCC(N)=O)C(=O)N[C@@H](C)C(=O)N[C@@H](CO)C(N)=O [PIQAS peptide] ({5FAM-Ahx}-PIQAS-NH2)
Kd: 150 to 200 µM
